Laboratory results reported in a melting point compilation (Tetko et al.; mined from patent text by program, amines drawn as free bases though some values may be those of a salt).

Row | melting point | Compound
1 | 208 °C | O=C1c2ccccc2CN1c1ccccc1CCN1CCN(c2nsc3ccccc23)CC1
2 | 157 to 161 °C | Cc1noc(-c2cccc(NC(=O)N[C@@H]3c4cc(C#N)ccc4OC(C)(C)[C@H]3O)c2)n1
3 | 180 to 182 °C | COc1cc2c(cc1OC)C(c1ccccc1)=NC(c1cccnc1)C2 (stereo unspecified)
4 | 214 to 215 °C | CS(=O)(=O)Nc1ccc(OCC2CCN(c3ccncc3)CC2)cc1
5 | 214 to 215 °C | C=CCOc1c(Cl)cc(-c2ccc(=O)[nH]n2)cc1Cl
6 | 170 to 171 °C | O=C1Nc2cc(-c3ccccc3)ccc2OC1CCO (stereo unspecified)
7 | 140 to 141 °C | CNC(=O)c1cc(-c2ccc(OC)c(F)c2)nn(CC2CC2)c1=O
8 | 349 to 353 °C | O=C1CCc2cc(C3=NNC(=O)C4CCC34)ccc2N1 (stereo unspecified)
9 | 160 to 162 °C | CCCCn1c(=O)n(C)c(=O)c2[nH]ncc21
10 | 114 to 116 °C | Cc1ccc(C2CC(CN(C)C)Oc3ccccc32)cc1 (stereo unspecified)
11 | > 285 °C | CCOC(=O)C(=O)N1CCCc2c1ccc1[nH]c(=O)c(=O)[nH]c21
12 | 113 to 114 °C | COc1ccc(C(=O)N2c3ccccc3C(N3CCSc4ccccc43)CC2C)cc1OC (stereo unspecified)
13 | 238 to 240 °C | N#Cc1cc(C(=O)NN2CCOCC2)ccc1O
14 | 142 to 144 °C | COC(=O)c1c(C(F)F)nc(C(F)(F)F)c(C2CC(C)N(O)C2)c1CC1CC1 (stereo unspecified)
15 | 44 to 45 °C | CN(C)C1CC=C(c2ccccc2Cc2ccccc2)CC1 (stereo unspecified)
16 | 204 °C | O=[N+]([O-])c1cc2c(Nc3ccc(F)c(Cl)c3)ncnc2cc1OCC1CC1
17 | 248 °C | Cn1cncc1C(O)(c1ccoc1)c1ccc2c(c1)c(-c1cccc(Cl)c1)cc(=O)n2C (stereo unspecified)
18 | 315 to 317 °C | O=C1NCC(Cc2ccccc2)C2=C1N=C1N=C(N3CCOCC3)NN1C2 (stereo unspecified)
19 | 71 to 72 °C | COc1ccc(CN2C(=O)CC2COS(C)(=O)=O)c(OC)c1 (stereo unspecified)
20 | 82 to 83 °C | COc1ccc(-c2cc(C)c3occc3c2)cc1

Row | melting point | Compound
21 | 140 to 141 °C | CCn1nnn(CCN2CCC(COC)(N(OCc3ccccc3)C(C)=O)CC2)c1=O
22 | 258 to 259 °C | CC(C)(C)COc1ccc(C2=CC=CN3CCS(=O)(=O)N=C23)cc1
23 | 308 to 311 °C | N#Cc1cc2cc(Br)ccc2[nH]c1=O
24 | 160 to 161 °C | CCC(O)CNC(=O)c1nn(C2CCCCO2)cc1NC(=O)c1ccccn1 (stereo unspecified)
25 | 130 °C | CCOC(=O)c1cn(CC)c2nc(N3CCN(C)CC3)ccc2c1=O
26 | 149 to 151 °C | CCC(OC(=O)C1CC1)c1ccc(Cl)c2nc3n(c12)CCCN3c1ccc(OC)nc1C (stereo unspecified)
27 | 204 to 205 °C | CCOC(=O)C1=C(C)Nc2cc[nH]c(=O)c2C1c1ccccc1Cl (stereo unspecified)
28 | 141 to 143 °C | c1ccc(C2=Nc3ccccc3N3CCc4cccc2c43)cc1
29 | 211 to 212 °C | Cc1cc(N2N=CCNC2=O)cc(Cl)c1C(C#N)c1ccc(Cl)nc1 (stereo unspecified)
30 | 100 to 101 °C | CCOC(=O)COc1cc(C)c(C)c2c1CCC2=O
31 | 234 to 235 °C | COc1ccccc1C=C1NC(=S)NC1=O
32 | 215 to 217 °C | CCOc1ccc(-c2c(Cl)c(CN3C(=O)CCC3=O)nc3sc4c(c23)CCNC4)cc1
33 | 92.5 to 93 °C | Oc1ccccc1CNC1CCN(Cc2ccccc2)CC1
34 | 86 to 88 °C | COCC1CN(c2ccc(C3CCCCC3)cc2)C(=O)O1 (racemic)
35 | 143 to 144 °C | CC(=O)NC1Cc2ccc([N+](=O)[O-])cc2C1 (stereo unspecified)
36 | 138 to 143 °C | CN(C)c1ccc(CN(C(=O)C2CCCc3c(O)cccc32)c2ccccc2)cc1 (stereo unspecified)
37 | 181 to 183 °C | N#Cc1ccc(OCCc2c[nH]cn2)cc1
38 | 97 to 99 °C | COc1ccc2c(c1)OC(c1ccc(Cl)cc1)CC2=O (stereo unspecified)
39 | 224 to 225 °C | CCc1ccccc1C=C1CCN2Cc3ccccc3N=C12

Continued, compound first:

Row | Compound | melting point
40 | COC(=O)CN(c1cc(OCc2ccccc2)cc2ccc(OC)cc12)S(N)(=O)=O | 137 to 139 °C
41 | CCCCCCCCOc1ccc(C(C)(C)CC(C)(C)C)cc1S(=O)(=O)NCC(C)c1nn2nc(C)c(Cl)c2[nH]1 (stereo unspecified) | 135 to 137 °C
42 | O=C(O)c1cnc(NCc2cccs2)nc1-c1ccccc1 | 212 to 213 °C
43 | Cc1n[nH]c(CCCCn2cnc(NC(N)=NCC(F)(F)F)n2)n1 | 175 to 176 °C
44 | Cn1cncc1C(O)(c1ccc(Cl)cc1)c1ccc2nc(-c3cccnc3)nc(-c3cccc(Cl)c3)c2c1 (stereo unspecified) | 178 °C
45 | O=C(/C=C/C=C(c1cccc(F)c1)c1cccc(F)c1)Oc1ccc([N+](=O)[O-])cc1 | 130 °C
46 | Nc1ccc(Nc2c(NCc3ccccc3)cc(C(=O)O)cc2S(N)(=O)=O)cc1 | 244 °C
47 | CCOC(=O)c1cnc(Cl)nc1NCc1ccc(OC)c(Cl)c1 | 114 to 115 °C
48 | O=C(O)Cc1ccc(OCCNC(=O)C2Cc3ccccc3N2S(=O)(=O)c2ccc(-c3ccc(F)cc3)cc2)cc1 (stereo unspecified) | 81 °C
49 | O=C(Cl)c1c(Cl)c(Cl)c(Cl)c2c(Cl)c(Cl)c(Cl)c(Cl)c12 | 163 to 165 °C
50 | COc1c(C=Cc2ccccc2)cc(C(C)(C)C)cc1C=Cc1ccccc1 | 129 to 130 °C
51 | CC(C)(O)c1nnc2ccc(-c3c(-c4ccc(F)cc4F)nc4occn34)nn12 | 258 to 260 °C
52 | O=C(/C=C/c1ccn(S(=O)(=O)c2ccc(CN3CCOCC3)cc2)c1)NO | 168 to 170 °C
53 | O=C(O)C(F)c1cc(F)cc(F)c1 (stereo unspecified) | 90 to 110 °C
54 | NC(Cc1c(Cl)cccc1Cl)=NO | 172 to 173 °C
55 | O=C1NC(=O)C(Br)(c2ccc(Oc3ccccc3)cc2)C(=O)N1 | 125 to 127 °C
56 | Cc1nc2cccc([N+](=O)[O-])c2s1 | 120 to 121 °C
57 | Cc1oc(-c2ccccc2)nc1COc1nn(Cc2ccc(Oc3ccccc3)cc2)cc1C(N)=O | 158 to 159 °C
58 | CC(Cc1cc([N+](=O)[O-])cc2ccoc12)NC(=O)OC(C)(C)C (stereo unspecified) | 131 to 132 °C
59 | Nc1nc(Cc2ccccc2)ncc1C=S | 136 to 139 °C
60 | CN1COCN(Cc2ccc(Cl)nc2)C1=N[N+](=O)[O-] | 116 to 118 °C

Row | Compound | melting point
61 | O=C(O)c1ccc(Cc2cc3cc(Cl)ccc3n2S(=O)(=O)c2ccc3c(c2)OCCO3)s1 | 196 °C
62 | CC(C)(C)OC(=O)CNc1ccccc1C(=O)c1ccccc1 | 88 °C
63 | CCOC(=O)C(=CNc1ccc(C)cc1CO)C(=O)OCC | 92 to 95 °C
64 | C#CC1(O)CCC2(C)C(CCC3C2CCC2(C)C(C(=O)CSCCO)CCC32)C1 (stereo unspecified) | 122 to 126 °C
65 | CONC(=N)c1ccc(-c2ccc(-c3ccc(-c4ccc(C(=N)NOC)cc4)o3)o2)cc1 | 258 to 259 °C
66 | Cc1cc(OC(C)c2sc(-c3ccc(C(F)(F)F)cc3F)nc2C)ccc1OC(C)(C)C(=O)O (stereo unspecified) | 133 °C
67 | O=S(=O)(Nc1ccccc1OCc1csc(-c2ccccc2)n1)C(F)(F)F | 123 to 125 °C
68 | CC(C)(C)c1cc(CC(C)(C)C2OCCS2)cc(C(C)(C)C)c1O (stereo unspecified) | 77 °C
69 | N#Cc1c2cccccc-2nc1NCCC(c1ccccc1)c1ccccc1 | 178 to 180 °C
70 | CSc1nc(NC2CC2)nc(Cl)c1C#N | 139 to 141 °C
71 | COc1ccc(C(OC(C)=O)c2sccc2C=O)cc1OC (stereo unspecified) | 91 to 92 °C
72 | CCc1ccc(C=Nc2ccc(C#N)cc2)cc1 | 76.2 to 77 °C
73 | Cn1cc(C(=O)CCN2CCCCC2)cc1C(=O)c1cccc2ccccc12 | 141 to 143 °C
74 | COc1ccccc1CNc1cccnc1Cl | 121 to 125 °C
75 | CCOC(=O)c1ncn(C2OC(COC(=O)c3ccccc3)C(OC(=O)c3ccccc3)C2OC(=O)c2ccccc2)c1C(=O)OCC (stereo unspecified) | 134 to 136 °C
76 | c1ccc(C(c2ccccc2)N2CCN(CCCn3cnc4ccccc43)CC2)cc1 | 132 °C
77 | CC(=O)Nc1c(Cl)cnc(OCCO)c1Cl | 131 to 132 °C
78 | CC(NC(=C(C#N)S(=O)(=O)c1ccc(Cl)cc1)N(C)c1cc(C(F)(F)F)cc(C(F)(F)F)c1)C(C)(C)C (stereo unspecified) | 152 to 154 °C
79 | Cc1nc(-c2c(F)cccc2Cl)nn1-c1ccc(CO)cc1 | 120 to 122 °C
80 | CC(C)Cc1ccc2c([N+](=O)[O-])c(O)c(O)cc2c1 | 105 to 108 °C
81 | COc1ccnc2c(S(=O)c3nc4ccccc4[nH]3)cccc12 (stereo unspecified) | 178 to 179 °C

Row | Compound | melting point
82 | Cc1nn(C)c2c1N=C(C(C)C)N1CC(C)N=C21 (stereo unspecified) | 96 to 97 °C
83 | C#CCOCc1c(C)nc2c(OCc3ccccc3OC)cccn12 | 107 to 108 °C
84 | COc1c(NC(=O)Nc2ccc(Oc3ccoc(=O)c3)c3ccccc23)cc(C(C)(C)C)cc1NS(C)(=O)=O | 185 to 187 °C
85 | COc1ccc2cc(C(C)COC(=O)c3cc(O)c4c(c3)C(=O)c3cccc(O)c3C4=O)ccc2c1 (stereo unspecified) | 147 to 151 °C
86 | COc1ccc(S(=O)(=O)NCc2ccccc2)c2c1oc1ccccc12 | 180 to 185 °C
87 | CC(C)(C(=O)O)N1COC(C(F)F)=C(c2ccccc2)C1=O | 149 to 151 °C
88 | N#CC1(NCC2CCCCC2)CCN(Cc2ccccc2)CC1 | 128 to 130 °C
89 | CCCCC(CC(=O)Nc1cc(C(N)=O)ccc1C(C)(C)C)c1ccc(OC)cc1OC (stereo unspecified) | 186 to 188 °C
90 | CCOC(=O)c1c(NCc2ccccc2)nc2ccc(Br)cc2c1Cl | 163 to 165 °C
91 | CC(=O)C=Cc1c(C)c(C)c(C)c2ccoc12 | 99 °C
92 | O=C(O)Cc1ccc(Cl)cc1OCCc1ccccc1 | 102 to 104 °C
93 | Cc1c(NCCN)nc(=O)n(C)c1N | 186 to 188 °C
94 | CCOC(=O)c1cn(Cc2ccccc2)nc1OCc1ccc(OCc2nc(-c3ccco3)oc2C)c(Cl)c1 | 153 to 154 °C
95 | CC(C)(C)OC(=O)NCC#Cc1cccnc1 | 74 to 78 °C
96 | Brc1ccc(NN=C(Cc2ccco2)c2ccccc2)nc1 | 105 to 107 °C
97 | CCCCN(CCCc1coc2c(OC)cccc12)C1COc2c(F)ccc(C(N)=O)c2C1 (stereo unspecified) | 110 to 117 °C
98 | COC(=O)c1scc(-c2ccccc2)c1N | 64 to 66 °C
99 | CC(C#N)(c1ccc(Cl)c(C(F)(F)F)c1)c1ccc(N)cc1Cl (stereo unspecified) | 180 °C
100 | CCOC(=O)C(=NOCCBr)c1csc(N)n1 | 111 to 114 °C
101 | CNC(=O)c1cc(C#N)cc(Cl)c1NC(=O)c1cc(Cl)nn1-c1ncccc1Cl | 197 to 200 °C
